# Reference: patent US20150252026A1, “4-(INDOLYL OR BENZIMIDAZOLYL)AMINO-2-(2-(INDOL-3-YL)ETHYL)AMINOPYRIMIDINES USEFUL FOR THE TREATMENT OF CANCER” (NOVIGA RESEARCH AB, priority 2012, published 2015)
# Columns and labels:
# [1] = system: A2780/Adr (multidrug-resistant ovarian cancer); assay: FMCA cell viability in multidrug-resistant ovarian cancer cell line A2780/Adr; assay type: cell-based; conditions: A2780/Adr multidrug-resistant ovarian cancer cells
# Text: (§1) The Fluorometric Microculture Cytotoxicity Assay, FMCA (Larsson, R., et al.; Anticancer Res, 1989, 9, 1111-1119), is a three day non-clonogenic microplate-based cell viability assay used for measurement of the cytotoxic and/or cytostatic effect of compounds in vitro (Lindhagen, E. et al.; Nat. Protoc., 2008, 3, 1364-1369). FMCA represents a valuable method to measure cytotoxicity in a number of cell types, both cell lines and primary cells from patients (Larsson, R., et al.; Int. J. Cancer, 1992, 50, 177-185; Fridborg, H., et al.; Eur. J. Cancer, 1999. 35, 424-432; Dhar, S., et al.; Br. J. Cancer, 1996, 74, 888-896).
# (§2) FMCA is based on the principle that fluorescein diacetate (FDA) is converted to the fluorescent probe fluorescein by esterases […]. For experiments, 96-well microplates are prepared with compounds and stored at −20° C. or −70° C. until use. Cells are then seeded into the drug-prepared plates and placed in an incubator for 72 h. On the last day of incubation, the plates are washed and a buffer containing FDA is added and incubated with the cells for 45 minutes. Finally the fluorescence per well is measured in a fluorometer and a Survival Index % (SI) for each compound-treated well is calculated with the equation: Compound-treated cells minus blank divided by control cells minus blank. A high SI-value indicates a large percentage of living cells and vice versa.
# (§3) To obtain EC50-values, plates were prepared with compounds serially diluted in culture media to suitable concentration ranges for each compound. Thereafter cells were added at a density of 10 000 cells per well and FMCA was performed after 72 h. Data analysis was performed using GraphPadPrism software, where SI values for each concentration were plotted on a log scale and processed with non-linear regression and a standard sigmoidal dose-response model.
# (§4) The compounds of the invention were also tested on further cancer cell lines related to ovarian cancer (A2780; see e.g. Hamilton, T. et al.; Semin. Oncol., 1984, 11, 285-298) and multidrug-resistant ovarian cancer (A2780/Adr). The known microtubule interfering agents vincristine and paclitaxel were included as references in the resistant and non-resistant ovarian cancer cell lines.
# A2780 (ovarian cancer) = assay: FMCA cell viability in ovarian cancer cell line A2780; assay type: cell-based; conditions: Homo sapiens; A2780 ovarian cancer cells
# Text: as §1, §2, §3, §4
# bovine tubulin protein = assay: Tubulin polymerization assay kit (Cytoskeleton Inc), fluorescence; assay type: biochemical; conditions: for IC50: cell-free, example compounds at 1, 3 and 10 μM, controls at 3 μM, 60 min, read-out: Inhibition of tubulin polymerization IC50; for inhibitory effects on tubulin polymerization (in words): cell-free, 1, 3 and 10 μM
# Experimental: Example compounds were further tested in a tubulin polymerization assay kit from Cytoskeleton Inc (Denver, Colo., USA). Polymerization is followed by fluorescence enhancement due to the incorporation of a fluorescent reporter into microtubules as polymerization occurs. Vincristine and paclitaxel at 3 μM were used as positive controls for tubulin polymerization inhibition and stabilisation, respectively. All compounds were dissolved in DMSO, which was used as solvent control. For experiments, example compounds (1, 3, and 10 μM) and control compounds (3 μM) were incubated with bovine tubulin protein in a cell-free environment and the fluorescence was then measured in a fluorometer (Fluostar Optima, BMG Labtech, Offenburg, Germany) at 360/450 nm every minute for a total of 60 mins.
# [2] = system: acute lymphoblastic leukemia cell line CCRF-CEM; assay: Fluorometric Microculture Cytotoxicity Assay (FMCA) in CCRF-CEM cells; assay type: cell-based; conditions: Homo sapiens, FMCA after 72 h
# Text: as §1, §2
# For experiments with compounds of the invention, 96-well plates were prepared as follows:
# Compounds were dissolved in DMSO to 10 mM and stored at −20° C. The test compounds were thawed, protected from light, mixed, and 3 μl stock solution was added to test tubes containing 297 μl culture medium RPMI-1640, to give the concentration 100 μM. Then, compounds were serially diluted to concentrations ten times higher than the desired test concentrations. Finally, 20 μl of each compound solution was added in duplicates to wells in two V-bottomed 96-well plates. The plates were stored at −20° C. until use.
# On the day of cell seeding, 180 μl of cell suspension was added to each well in the two assay plates. The final concentrations of compounds tested were 10 μM, 1 μM, 0.1 μM and 0.01 μM. The experiment was performed twice.
# In subsequent experiments, compounds were tested, along with a number of approved cancer drugs (dasatinib and pazopanib) as described above. The acute lymphoblastic leukemia cell line CCRF-CEM was used throughout. In the assay plates, medium was added to eight empty wells (blank wells) and wells filled with cell suspension served as control wells. SI-values were then calculated for each compound-treated well as described above. All experiments were conducted twice and a new batch of plates was prepared for each experiment.
# as §3
# [3] = system: colchicine site on tubulin (porcine brain tubulin); assay: Colchicine displacement assay, fluorometric detection; assay type: binding; conditions: compound 20 μM, colchicine 2 μM, porcine brain tubulin 2 μM, 2 h; control = colchicine bound to tubulin
# Experimental: To study whether the compounds bind to the colchicine site on tubulin, a colchicine displacement assay using fluorometric detection was performed as previously described (Bhattacharyya B. et al.; Proc Natl Acad Sci USA 1974, 71:2627-31; Risinger A L. et al.; J Pharmacol Exp Ther 2011; 336:652-60). Porcine brain tubulin at 2 μM (Cytoskeleton) in a buffer consisting of 80 mM PIPES, 2 mM MgCl2, 0.5 mM EGTA at pH 7.0 with addition of 1 mM GTP, was incubated alone, with 2 μM colchicine or with 2 μM colchicine in the presence of test compounds or reference compound combretastatin A4 at 20 μM for 2 h in a black half-area 96-well plate (Corning Inc, Corning, N.Y., USA). Thereafter, the fluorescence was measured using a FLUOStar Optima (BMG Labtech) at an excitation of 380 nm and emission of 440 nm. The results are presented as percent of control i.e. colchicine bound to tubulin.
SMILES,EC50 [1],EC50 (A2780 (ovarian cancer)),IC50 (bovine tubulin protein),Colchicine-tubulin binding Percent of control [3],EC50 [2],inhibitory effects on tubulin polymerization (in words) (bovine tubulin protein)
"CC[C@]1(O)C[C@H]2CN(CCc3c([nH]c4ccccc34)[C@@](C(=O)OC)(c3cc4c(cc3OC)N(C=O)[C@H]3[C@@](O)(C(=O)OC)[C@H](OC(C)=O)[C@]5(CC)C=CCN6CC[C@]43[C@@H]65)C2)C1 [Vincristine, vincristine, reference compound]",210 nM,0.22 nM,< 3000 nM,,,
CCOc1ccc2[nH]cc(CCNc3nc(C)cc(Nc4ccc5cc(C)[nH]c5c4)n3)c2c1 [Example 6],450 nM,170 nM,,,69 nM,
"Cc1ccc(Nc2nccc(N(C)c3ccc4c(C)n(C)nc4c3)n2)cc1S(N)(=O)=O [Ref. 2, pazopanib, reference compound]",,,,,25900 nM,
"CC(=O)O[C@H]1C(=O)[C@@]2(C)[C@H]([C@H](OC(=O)c3ccccc3)[C@]3(O)C[C@H](OC(=O)[C@H](O)[C@@H](NC(=O)c4ccccc4)c4ccccc4)C(C)=C1C3(C)C)[C@]1(OC(C)=O)CO[C@@H]1C[C@@H]2O [Paclitaxel, paclitaxel, reference compound]",810 nM,0.26 nM,,,,
"COc1ccc(/C=C\c2cc(OC)c(OC)c(OC)c2)cc1O [Combretastatin A4, combretastatin A4, reference compound]",,,,66% of control,,
"CCOc1ccc2[nH]cc(CCNc3nc(C)cc(Nc4ccc5[nH]ccc5c4)n3)c2c1 [Example 4, N^2-[2-(5-ethoxy-1H-indol-3-yl)ethyl]-N^4-(1H-indol-5-yl)-6-methyl-pyrimidine-2,4-diamine]",930 nM,950 nM,> 10000 nM,,800 nM,
"COc1ccc2[nH]cc(CCNc3nccc(Nc4cccc5c4ncn5C)n3)c2c1 [Example 2, N^2-[2-(5-methoxy-1H-indol-3-yl)ethyl]-N^4-(1-methylbenzimidazol-4-yl)pyrimidine-2,4-diamine]",17 nM,3.3 nM,1000 to 3000 nM,81% of control,9.7 nM,showed inhibitory effects on tubulin polymerization
"Cc1nc(Nc2ncc(C(=O)Nc3c(C)cccc3Cl)s2)cc(N2CCN(CCO)CC2)n1 [Ref. 1, dasatinib, reference compound]",,,,,9700 nM,

# The next lines start with results.
EC50 [1],EC50 (A2780 (ovarian cancer)),IC50 (bovine tubulin protein),Colchicine-tubulin binding Percent of control [3],SMILES,EC50 [2],inhibitory effects on tubulin polymerization (in words) (bovine tubulin protein)
24 nM,9.2 nM,,,"CCOc1ccc2[nH]cc(CCNc3nccc(Nc4cccc5c4ncn5C)n3)c2c1 [Example 3, N^2-[2-(5-ethoxy-1H-indol-3-yl)ethyl]-N^4-(1-methylbenzimidazol-4-yl)pyrimidine-2,4-diamine]",5.6 nM,
130 nM,48 nM,~3000 nM,82% of control,"CCOc1ccc2[nH]cc(CCNc3nc(C)cc(Nc4cccc5c4ccn5C)n3)c2c1 [Example 8, N^2-[2-(5-ethoxy-1H-indol-3-yl)ethyl]-6-methyl-N^4-(1-methylindol-4-yl)pyrimidine-2,4-diamine]",110 nM,showed inhibitory effects on tubulin polymerization
53 nM,12 nM,,,"COc1ccc2[nH]cc(CCNc3nc(C)cc(Nc4cccc5c4ccn5C)n3)c2c1 [Example 7, N^2-[2-(5-methoxy-1H-indol-3-yl)ethyl]-6-methyl-N^4-(1-methylindol-4-yl)pyrimidine-2,4-diamine]",32 nM,
400 nM,130 nM,3000 to 10000 nM,,"COc1ccc2[nH]cc(CCNc3nc(C)cc(Nc4ccc5cc(C)[nH]c5c4)n3)c2c1 [Example 5, N^2-[2-(5-methoxy-1H-indol-3-yl)ethyl]-6-methyl-N^4-(2-methyl-1H-indol-6-yl)pyrimidine-2,4-diamine]",100 nM,showed inhibitory effects on tubulin polymerization
380 nM,17 nM,1000 to 3000 nM,95% of control,"CCOc1ccc2[nH]cc(CCNc3nccc(Nc4ccc5c(c4)nc(C)n5C)n3)c2c1 [Example 1, N^4-(1 2-dimethyl-1H-benzo[d]imidazol-5-yl)-N^2-[2-(5-ethoxy-1H-indol-3-yl)ethyl]pyrimidine-2,4-diamine]",12 nM,showed inhibitory effects on tubulin polymerization
